Laboratory results published in patent publication US6833456B2, “Indolyl-urea derivatives of thienopyridines useful as antiangiogenic agents, and methods for their use” (Agouron Pharmaceuticals, Inc., priority 2002, dated 2004).
Several values for one entry are separate records, joined by “and”; a condition that tells them apart may be missing. Equal values may be shown once. Each block holds one compound with its values, some of them ahead of it.

Tests used:
KDR (VEGFR2) = target: T1, KDR (VEGFR2) (Homo sapiens, UniProt P35968); test: KDR (VEGFR2) phosphorylation in PAE-KDR cells assay; type: cell-based; settings: PAE cells overexpressing human KDR, VEGF stimulated; read-out: PAE KDR autophos IC50
T1 construct: expressed in transfected cells; host or cells: porcine aorta endothelial (PAE) cells
How it was run: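 PAE cells overexpressing human KDR, serum-starved 16 h (0.1% FBS), treated with compound 1 h at 37° C (0.5% DMSO), then stimulated 8 min with 500 ng/ml VEGF plus 2 mM Na3VO4. Lysate KDR phosphotyrosine measured by capture ELISA (anti-pY HRP, 450 nm); IC50 by four-parameter fit.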

PDGFRβ = target: T2, PDGFRβ (Homo sapiens, UniProt P09619); test: PAE-PDGFRβ phosphorylation in PAE-PDGFRB cells assay; type: cell-based; settings: PAE cells overexpressing human PDGFRβ, PDGF-BB stimulated; read-out: PAE PDGFR autophos IC50
T2 construct: expressed in transfected cells; host or cells: porcine aorta endothelial (PAE) cells
How it was run: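 PAE cells overexpressing human PDGFRβ, serum-starved 16 h (0.1% FBS), compound 1 h at 37° C (0.5% DMSO), then 1 μg/mL PDGF-BB with 2 mM Na3VO4 for 8 min. Receptor captured by anti-PDGFRβ, phosphotyrosine detected by HRP-PY20/TMB at 450 nm; IC50 by four-parameter fit.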

[1] = Human liver microsome (HLM) assay; type: in vitro ADME; settings: human liver microsomes
Procedure: Compound metabolism in human liver microsomes was measured by LC-MS analytical assay procedures as follows. First, human liver microsomes (HLM) were thawed and diluted to 5 mg/mL with cold 100 mM potassium phosphate (KPO4) buffer. Appropriate amounts of KPO4 buffer, NADPH-regenerating solution (containing B-NADP, glucose-6-phosphate, glucose-6-phosphate dehydrogenase, and MgCl2), and HLM were preincubated in 13×100 mm glass tubes at 37° C. for 10 min. (3 tubes per test compound—triplicate). Test compound (5 μM final) was added to each tube to initiate reaction and was mixed by gentle vortexing, followed by incubation at 37° C. […] Samples were centrifuged at 4000 rpm for 20 min. to precipitate proteins and salt (Beckman Allegra 6KR, S/N ALK98DO6, #634). Supernatant was transferred to new 12×75 mm glass tubes and evaporated by Speed-Vac centrifugal vacuum evaporator. Samples were reconstituted in 200 μL 0.1% formic acid/acetonitrile (90/10) and vortexed vigorously to dissolve. The samples were then transferred to separate polypropylene microcentrifuge tubes and centrifuged at 14000×g for 10 min. (Fisher Micro 14, S/N M0017580). […]
The combined compound samples were injected into the LC-MS system, composed of a Hewlett-Packard HP1100 diode array HPLC and a Micromass Quattro II triple quadruple mass spectrometer operating in positive electrospray SIR mode (programmed to scan specifically for the molecular ion of each test compound). Each test compound peak was integrated at each timepoint. […]

T2 sequence (P09619 33-1106): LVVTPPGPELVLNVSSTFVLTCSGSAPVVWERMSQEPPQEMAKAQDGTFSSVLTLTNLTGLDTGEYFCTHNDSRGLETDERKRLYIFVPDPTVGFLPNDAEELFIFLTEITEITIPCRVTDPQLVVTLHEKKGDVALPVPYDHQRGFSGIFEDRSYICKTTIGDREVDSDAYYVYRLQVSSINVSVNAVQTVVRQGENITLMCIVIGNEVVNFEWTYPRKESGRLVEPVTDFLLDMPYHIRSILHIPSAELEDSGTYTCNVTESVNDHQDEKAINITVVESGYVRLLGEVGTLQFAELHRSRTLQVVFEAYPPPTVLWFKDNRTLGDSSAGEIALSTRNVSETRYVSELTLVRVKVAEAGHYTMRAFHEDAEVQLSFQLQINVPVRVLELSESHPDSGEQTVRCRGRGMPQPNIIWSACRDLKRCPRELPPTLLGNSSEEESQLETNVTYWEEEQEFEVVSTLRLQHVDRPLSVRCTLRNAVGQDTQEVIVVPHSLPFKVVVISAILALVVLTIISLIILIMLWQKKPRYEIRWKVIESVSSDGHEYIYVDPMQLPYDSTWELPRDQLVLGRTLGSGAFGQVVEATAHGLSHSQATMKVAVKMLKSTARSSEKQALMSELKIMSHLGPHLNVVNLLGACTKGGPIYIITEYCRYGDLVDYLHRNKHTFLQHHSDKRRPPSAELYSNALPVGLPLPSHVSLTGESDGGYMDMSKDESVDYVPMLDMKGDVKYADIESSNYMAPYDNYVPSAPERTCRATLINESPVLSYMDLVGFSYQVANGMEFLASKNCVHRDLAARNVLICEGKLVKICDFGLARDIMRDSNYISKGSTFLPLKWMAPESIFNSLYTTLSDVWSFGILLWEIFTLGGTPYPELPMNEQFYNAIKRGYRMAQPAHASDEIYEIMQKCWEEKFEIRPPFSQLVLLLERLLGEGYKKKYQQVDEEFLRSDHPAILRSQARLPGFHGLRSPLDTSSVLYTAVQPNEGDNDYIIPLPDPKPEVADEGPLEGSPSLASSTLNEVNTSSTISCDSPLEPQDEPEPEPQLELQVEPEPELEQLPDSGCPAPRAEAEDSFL
T1 sequence (P35968 20-1356): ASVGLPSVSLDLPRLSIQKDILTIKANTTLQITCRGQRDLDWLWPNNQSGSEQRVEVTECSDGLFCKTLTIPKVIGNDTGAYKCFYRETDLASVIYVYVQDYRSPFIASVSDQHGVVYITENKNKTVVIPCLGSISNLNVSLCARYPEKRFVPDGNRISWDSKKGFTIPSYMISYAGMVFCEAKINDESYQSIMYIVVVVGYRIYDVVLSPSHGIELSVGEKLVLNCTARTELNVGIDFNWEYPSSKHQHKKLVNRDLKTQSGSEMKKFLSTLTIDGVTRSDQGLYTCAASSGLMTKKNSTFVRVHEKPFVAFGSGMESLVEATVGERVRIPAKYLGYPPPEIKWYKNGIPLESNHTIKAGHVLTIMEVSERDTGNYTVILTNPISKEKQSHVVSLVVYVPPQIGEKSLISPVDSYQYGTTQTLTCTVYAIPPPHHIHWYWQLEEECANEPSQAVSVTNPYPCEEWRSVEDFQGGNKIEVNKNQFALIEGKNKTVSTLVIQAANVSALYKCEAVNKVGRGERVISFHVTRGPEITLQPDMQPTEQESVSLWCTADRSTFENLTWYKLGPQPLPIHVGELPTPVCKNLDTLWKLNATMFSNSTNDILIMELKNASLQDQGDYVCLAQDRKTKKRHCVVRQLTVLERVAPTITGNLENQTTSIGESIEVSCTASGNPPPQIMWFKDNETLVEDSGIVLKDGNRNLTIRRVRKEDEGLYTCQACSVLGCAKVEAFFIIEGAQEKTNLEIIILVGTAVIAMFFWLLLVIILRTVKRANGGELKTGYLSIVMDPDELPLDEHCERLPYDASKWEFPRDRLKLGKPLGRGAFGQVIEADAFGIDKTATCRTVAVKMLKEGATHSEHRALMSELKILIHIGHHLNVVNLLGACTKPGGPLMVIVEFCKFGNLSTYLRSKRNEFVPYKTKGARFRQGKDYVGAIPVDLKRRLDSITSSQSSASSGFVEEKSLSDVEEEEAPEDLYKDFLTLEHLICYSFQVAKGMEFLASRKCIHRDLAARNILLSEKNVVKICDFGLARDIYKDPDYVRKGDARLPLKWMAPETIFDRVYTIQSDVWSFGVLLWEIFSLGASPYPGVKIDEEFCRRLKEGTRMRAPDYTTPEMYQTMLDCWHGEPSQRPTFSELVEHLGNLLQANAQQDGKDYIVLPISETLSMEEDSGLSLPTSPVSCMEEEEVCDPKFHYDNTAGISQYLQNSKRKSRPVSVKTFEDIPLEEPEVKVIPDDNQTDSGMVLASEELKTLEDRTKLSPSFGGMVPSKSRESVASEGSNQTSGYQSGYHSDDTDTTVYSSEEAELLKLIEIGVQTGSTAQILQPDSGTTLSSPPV

Compound: COC[C@H]1CCCN1C(=O)c1cc2nccc(Nc3ccc4c(c3)cc(C)n4C(=O)NC3CC3)c2s1 [Example 1d, 5-[2-(2R-Methoxymethyl-pyrrolidine-1-carbonyl)-thieno[3,2-b]pyridin-7-ylamino]-2-methyl-indole-1-carboxylic acid cyclopropylamide]
IC50 (KDR (VEGFR2)): 0.45 nM and 0.51 nM | IC50 (PDGFRβ): 42 nM and 45 nM and 74 nM | % remain (HLM-NADPH, 0.5 h) [1]: 85%

Compound: CNC(=O)n1c(C)cc2cc(Nc3ccnc4cc(C(=O)N5CCC[C@H]5COC)sc34)ccc21 [Example 1t, 5-(2-[(S)-2-(methoxymethyl)pyrrolidine-1-carbonyl]thieno[3,2-b]pyridin-7-ylamino)-2-methylindole-1-carboxylic acid methylamide]
IC50 (KDR (VEGFR2)): 0.67 nM and 0.35 nM and 0.41 nM | IC50 (PDGFRβ): 116 nM and > 100 nM and 97 nM | % remain (HLM-NADPH, 0.5 h) [1]: 76.3%

Compound: CNC(=O)n1c(C)cc2cc(Nc3ccnc4cc(-c5nccn5C)sc34)ccc21 [Example 2a, 5-(2-[1-methyl-1H-imidazol-2-yl]thieno[3,2-b]pyridin-7-ylamino)-2-methylindole-1-carboxylic acid methylamide]
IC50 (KDR (VEGFR2)): 0.36 nM and 0.28 nM and 0.32 nM | IC50 (PDGFRβ): 57 nM and 96 nM and 61 nM and 41 nM | % remain (HLM-NADPH, 0.5 h) [1]: 91.1% | % remain (HLM-UDPGA, 0.5 h) [1]: 101.8%

Compound: CNC(=O)n1c(C)cc2cc(Nc3ccnc4cc(C(=O)N5CCC[C@H]5CO)sc34)ccc21 [Example 2b, 5-(2-[(S)-2-(hydroxymethyl)pyrrolidine-1-carbonyl]thieno[3,2-b]pyridin-7-ylamino)-2-methylindole-1-carboxylic acid methylamide]
IC50 (KDR (VEGFR2)): 1.42 nM and 1.43 nM and 1.27 nM | IC50 (PDGFRβ): 856 nM and > 100 nM and 616 nM and 556 nM and 657 nM and 682 nM | % remain (HLM-NADPH, 0.5 h) [1]: 92.1% | % remain (HLM-UDPGA, 0.5 h) [1]: 104.8%

Compound: COC[C@@H]1CCCN1C(=O)c1cc2nccc(Nc3ccc4c(c3)cc(C)n4C(=O)NC3CC3)c2s1 [Example 2c, 5-(2-[(S)-2-(methoxymethyl)pyrrolidine-1-carbonyl]thieno[3,2-b]pyridin-7-ylamino)-2-methylindole-1-carboxylic acid cyclopropylamide]
IC50 (KDR (VEGFR2)): 0.67 nM and 0.42 nM (2×) | IC50 (PDGFRβ): 84 nM and 105 nM and 87 nM | % remain (HLM-NADPH, 0.5 h) [1]: 76.2%

Compound: COC[C@@H]1CCCN1C(=O)c1cc2nccc(Oc3ccc4c(c3)cc(C)n4C(=O)NC3CC3)c2s1 [Example 4b, 5-(2-[(S)-2-(methoxymethyl)pyrrolidine-1-carbonyl]thieno[3,2-b]pyridin-7-yloxy)-2-methylindole-1-carboxylic acid cyclopropylamide]
IC50 (KDR (VEGFR2)): 0.21 nM (2×) and 0.25 nM | IC50 (PDGFRβ): 22 nM and 24 nM and 23 nM | % remain (HLM-NADPH, 0.5 h) [1]: 70.9%

Compound: C#CCNC(=O)n1c(C)cc2cc(Oc3ccnc4cc(C(=O)N5CCC[C@H]5COC)sc34)ccc21 [Example 4c, 5-(2-[(S)-2-(methoxymethyl)pyrrolidine-1-carbonyl]thieno[3,2-b]pyridin-7-yloxy)-2-methylindole-1-carboxylic acid prop-2-ynylamide]
IC50 (KDR (VEGFR2)): 0.28 nM and 0.24 nM and 0.36 nM | IC50 (PDGFRβ): 16 nM and 18 nM and 15 nM | % remain (HLM-NADPH, 0.5 h) [1]: 76.1%

Compound: CNC(=O)n1c(C)cc2cc(Oc3ccnc4cc(C(=O)N5CC[C@@H](OC)C5)sc34)ccc21 [Example 4j, 5-[2-(3R-Methoxy-pyrrolidine-1-carbonyl)-thieno[3,2-b]pyridin-7-yloxy]-2-methyl-indole-1-carboxylic acid methylamide]
IC50 (KDR (VEGFR2)): 0.86 nM and 0.35 nM and 0.34 nM | IC50 (PDGFRβ): 10 nM and 13 nM

Compound: C#CCNC(=O)n1c(C)cc2cc(Oc3ccnc4cc(C(=O)N5CC[C@@H](OC)C5)sc34)ccc21 [Example 4l, 5-[2-(3R-Methoxy-pyrrolidine-1-carbonyl)-thieno[3,2-b]pyridin-7-yloxy]-2-methyl-indole-1-carboxylic acid prop-2-ynylamide]
IC50 (KDR (VEGFR2)): 0.09 nM | IC50 (PDGFRβ): 15 nM

Compound: CNC(=O)n1c(C)cc2cc(Oc3ccnc4cc(C(=O)N5CC[C@@H](O)C5)sc34)ccc21 [Example 4n, 5-[2-(3R-Hydroxy-pyrrolidine-1-carbonyl)-thieno[3,2-b]pyridin-7-yloxy]-2-methyl-indole-1-carboxylic acid methylamide]
IC50 (KDR (VEGFR2)): 0.35 nM and 0.16 nM and 0.167 nM | IC50 (PDGFRβ): 5.8 nM

The next lines start with the values.

IC50 (KDR (VEGFR2)): 0.012 nM and 0.009 nM | IC50 (PDGFRβ): 9 nM
Compound: C#CCNC(=O)n1c(C)cc2cc(Oc3ccnc4cc(C(=O)N5CC[C@@H](O)C5)sc34)ccc21 [Example 4o, 5-[2-(3R-Hydroxy-pyrrolidine-1-carbonyl)-thieno[3,2-b]pyridin-7-yloxy]-2-methyl-indole-1-carboxylic acid prop-2-ynylamide]

IC50 (KDR (VEGFR2)): 0.22 nM | IC50 (PDGFRβ): 4 nM
Compound: Cc1cc2cc(Oc3ccnc4cc(C(=O)N5CC[C@@H](O)C5)sc34)ccc2n1C(=O)NC1CC1 [Example 4p, 5-[2-(3R-Hydroxy-pyrrolidine-1-carbonyl)-thieno[3,2-b]pyridin-7-yloxy]-2-methyl-indole-1-carboxylic acid cyclopropylamide]

IC50 (KDR (VEGFR2)): 0.256 nM and 0.52 nM and 0.237 nM | IC50 (PDGFRβ): 14.1 nM
Compound: C#CCNC(=O)n1c(C)cc2c(F)c(Oc3ccnc4cc(C(=O)N5CCC[C@H]5CO)sc34)ccc21 [Example 5e, 4-Fluoro-5-[2-(2S-hydroxymethyl-pyrrolidine-1-carbonyl)-thieno[3,2-b]pyridin-7-yloxy]-2-methyl-indole-1-carboxylic acid prop-2-ynylamide]

IC50 (KDR (VEGFR2)): 0.28 nM and 0.5 nM and 0.53 nM | IC50 (PDGFRβ): 18.2 nM
Compound: CNC(=O)n1c(C)cc2c(F)c(Oc3ccnc4cc(C(=O)N5CCC[C@H]5CO)sc34)ccc21 [Example 5n, 4-Fluoro-5-[(2-{[(2S)-2-(hydroxymethyl)pyrrolidin-1-yl]carbonyl}thieno[3,2-b]pyridin-7-yl)oxy]-N,2-dimethyl-1H-indole-1-carboxamide]

IC50 (KDR (VEGFR2)): 0.123 nM and 0.31 nM | IC50 (PDGFRβ): 29.1 nM
Compound: C#CCNC(=O)n1c(C)c(Cl)c2c(F)c(Oc3ccnc4cc(C(=O)N5CC[C@H](O)C5)sc34)ccc21 [Example 6d, 3-Chloro-4-fluoro-5-[2-(3S-hydroxy-pyrrolidine-1-carbonyl)-thieno[3,2-b]pyridin-7-yloxy]-2-methyl-indole-1-carboxylic acid prop-2-ynylamide]

IC50 (KDR (VEGFR2)): 0.45 nM and 0.19 nM | IC50 (PDGFRβ): 29 nM and 13 nM
Compound: C#CCNC(=O)n1c(C)cc2cc(Oc3ccnc4cc(C(=O)N5CCC[C@@H]5CO)sc34)ccc21 [Example 8q, 5-[2-(2R-Hydroxymethyl-pyrrolidine-1-carbonyl)-thieno[3,2-b]pyridin-7-yloxy]-2-methyl-indole-1-carboxylic acid prop-2-ynylamide]

IC50 (KDR (VEGFR2)): 0.29 nM and 0.86 nM and 0.34 nM | IC50 (PDGFRβ): 27 nM and 33 nM
Compound: CNC(=O)n1c(C)cc2cc(Oc3ccnc4cc(C(=O)N5CC[C@H](O)C5)sc34)ccc21 [Example 9g, 5-[2-(3S-Hydroxy-pyrrolidine-1-carbonyl)-thieno[3,2-b]pyridin-7-yloxy]-2-methyl-indole-1-carboxylic acid methylamide]

IC50 (KDR (VEGFR2)): 0.33 nM | IC50 (PDGFRβ): 36 nM
Compound: CCCNC(=O)n1c(C)cc2cc(Oc3ccnc4cc(C(=O)N5CC[C@H](O)C5)sc34)ccc21 [Example 9i, 5-[2-(3S-Hydroxy-pyrrolidine-1-carbonyl)-thieno[3,2-b]pyridin-7-yloxy]-2-methyl-indole-1-carboxylic acid propylamide]

IC50 (KDR (VEGFR2)): 1 nM | IC50 (PDGFRβ): 274 nM
Compound: Cc1cc2cc(Oc3ccnc4cc(C(=O)N5CC[C@H](O)C5)sc34)ccc2n1C(=O)NCCO [Example 9k, 5-[2-(3S-Hydroxy-pyrrolidine-1-carbonyl)-thieno[3,2-b]pyridin-7-yloxy]-2-methyl-indole-1-carboxylic acid (2-hydroxy-ethyl)-amide]

IC50 (KDR (VEGFR2)): 0.76 nM and 0.51 nM | IC50 (PDGFRβ): 216 nM
Compound: Cc1cc2cc(Oc3ccnc4cc(C(=O)N5CC[C@H](O)C5)sc34)ccc2n1C(=O)NCCCO [Example 9l, 5-[2-(3S-Hydroxy-pyrrolidine-1-carbonyl)-thieno[3,2-b]pyridin-7-yloxy]-2-methyl-indole-1-carboxylic acid (3-hydroxy-propyl)-amide]
